This note sets out measurements from ChEMBL document CHEMBL5053524, “Novel Electrophilic Warhead Targeting a Triple-Negative Breast Cancer Driver in Live Cells Revealed by "Inverse Drug Discovery"” (J Med Chem, 2021).

Assay [1] has as its target Glutathione S-transferase P (Homo sapiens, UniProt P09211). The assay can be described thus: Inhibition of recombinant GSTP1 (unknown origin) using GSH substrate.
The test system of the next assay is Bcap37. The assay can be described thus: Antiproliferative activity against human BcaP37 cells assessed as cell viability incubated for 24 hrs by CCk8 assay. Type of assay: functional, cell-based. The conditions noted are these: Bcap37, 24 h.
The subject of another assay is MDA-MB-453. Nature of the assay: Antiproliferative activity agaisnt human MDA-MB-453 cells assessed as cell viability incubated for 24 hrs by CCK8 assay. The assay is classed as functional, cell-based. The note with it: MDA-MB-453, 24 h. On the technique in general: Tetrazolium dyes change colour on reduction, which living cells bring about.
Assay [2] deals with MDA-MB-468. The assay can be described thus: Antiproliferative activity agaisnt human MDA-MB-468 cells assessed as cell viability incubated for 24 hrs in presence of GSTP1 siRNA by CCK8 assay. The conditions noted are these: MDA-MB-468, 24 h. The assay is classed as functional, cell-based.
For a further assay, the system named is MDA-MB-231. The assay can be described thus: Antiproliferative activity agaisnt human MDA-MB-231 cells assessed as cell viability incubated for 24 hrs by CCK8 assay. The conditions noted are these: MDA-MB-231, 24 h. Type of assay: functional, cell-based.
Assay [3] relates to MDA-MB-468. The assay can be described thus: Antiproliferative activity agaisnt human MDA-MB-468 cells assessed as cell viability incubated for 24 hrs in presence of scrambled siRNA by CCK8 assay. The assay is classed as functional, cell-based. The conditions noted are these: MDA-MB-468, 24 h.
For assay [4], the system named is MDA-MB-468. Nature of the assay: Antiproliferative activity agaisnt human MDA-MB-468 cells assessed as cell viability incubated for 24 hrs by CCK8 assay. The assay is classed as functional, cell-based. The note with it: MDA-MB-468, 24 h.
A further assay relates to MCF7. The assay can be described thus: Antiproliferative activity agaisnt human MCF7 cells assessed as cell viability incubated for 24 hrs by CCK8 assay. Type of assay: functional, cell-based. The note with it: MCF7, 24 h.

Chain of Glutathione S-transferase P (P09211 whole entry): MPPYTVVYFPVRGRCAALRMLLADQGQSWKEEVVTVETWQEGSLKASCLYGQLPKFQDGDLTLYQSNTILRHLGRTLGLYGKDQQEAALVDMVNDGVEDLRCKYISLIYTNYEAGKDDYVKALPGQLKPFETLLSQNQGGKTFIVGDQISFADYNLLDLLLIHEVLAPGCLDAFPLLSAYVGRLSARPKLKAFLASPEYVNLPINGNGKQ

A word on the IC50: it is the concentration that gives 50% inhibition. For the molecule `O=c1cc1-c1ccc(OCc2ccc(-c3ccccc3)cc2)cc1`, the IC50 in assay [1] is 3.2 µM.

With `C#CCOc1ccc(-c2c(-c3ccc(OCC#C)cc3)c2=O)cc1`, the IC50 in the assay on Bcap37 is 26.1 µM.

As for `O=c1cc1-c1ccc(OCc2ccccc2)cc1`, the IC50 turned out to be 11 µM in the assay on MDA-MB-453; 5.02 µM in the assay with MDA-MB-468 [2]; 5.02 µM with MDA-MB-231; 3.46 µM with MDA-MB-468 [3]; 0.73 µM in assay [1]; 3.47 µM in the assay on MDA-MB-468 [4]. Besides, the IC50 in the assay with MCF7 amounted to 12.5 µM.

In the case of `O=c1cc1-c1ccc2ccccc2c1`, the IC50 in assay [1] was found to be 0.36 µM.

`C#CCOC(=O)CCCCc1cc1=O`: the IC50 with Bcap37 was found to be 10.6 µM; in assay [1], 1.18 µM.

For the molecule `COc1ccc2cc(-c3cc3=O)ccc2c1`, the concentration for half-maximal inhibition (IC50) came to 30 µM in the assay on MDA-MB-453; 20.1 µM in the assay with MDA-MB-468 [2]; 6.14 µM in the assay with MDA-MB-231; 4.47 µM in the assay with MDA-MB-468 [3]; 1.99 µM in assay [1]; 4.48 µM in the assay on MDA-MB-468 [4]. Moreover, the IC50 with MCF7 is 14.7 µM.

In the case of `O=c1cc1-c1ccc(Oc2ccccc2)cc1`, in assay [1], the IC50 was determined as 0.73 µM.

With `C#CCOc1ccc(-c2cc2=O)cc1`, the concentration for half-maximal inhibition (IC50) with Bcap37 was 45 µM; in assay [1], 1.64 µM.

For the molecule `C#CCOc1ccc(-c2c(N(CC)CC)c2=O)cc1`, the IC50 in the assay on Bcap37 stood at 46.1 µM.
